Test results from US9284286B2, “Specific carboxamides as KCNQ2/3 modulators” (GRÜNENTHAL GMBH, priority 2012, dated 2016).

Target: T1, KCNQ2/3 channels (Homo sapiens, UniProt O43525+O43526)
T1 construct: expressed in transfected cells; host or cells: CHO-K1
Assay: Fluorescence assay using a voltage sensitive dye (fluorimetry)
Format: cell-based
Conditions: CHO-K1 cells expressing KCNQ2/3 channels; for Emax: relative to retigabine = 100%, read-out: Fluorimetry % Efficacy (retigabine = 100%); for EC50: voltage-sensitive dye, KCl depolarisation, read-out: Fluorimetry EC50/IC50
Experimental: Pharmacological Experiments Fluorescence Assay Using a Voltage Sensitive Dye (Fluorimetry)
Human CHO-K1 cells expressing KCNQ2/3 channels are cultivated adherently at 37° C., 5% CC2 and 95% humidity in cell culture bottles (e.g. 80 cm^2 TC flasks, Nunc) with DMEM-high glucose (Sigma Aldrich, D7777) including 10% FCS (PAN Biotech, e.g. 3302-P270521) or alternatively MEM Alpha Medium (1×, liquid, Invitrogen, #22571), 10% fetal calf serum (FCS) (Invitrogen, #10270-106, heat-inactivated) and the necessary selection antibiotics.
Before being sown out for the measurements, the cells are washed with 1×DPBS buffer Ca^2+/Mg^2+-free (e.g. Invitrogen, #14190-094) and detached from the bottom of the culture vessel by using Accutase (PAA Laboratories, #L11-007) (incubation with Accutase for 15 min at 37° C.). The cell number is determined using a CASY™ cell counter (TCC, Schärfe System). Depending on the optimal density for each individual cell line, 20,000-30,000 cells/well/100 μl are seeded onto 96-well Corning™ CeIIBIND™ assay plates (Flat Clear Bottom Black Polystyrene Microplates, #3340). Freshly seeded cells are then left to settle for one hour at room temperature, followed by incubation for 24 hours at 37° C., 5% CO2 and 95% humidity.
The voltage-sensitive fluorescent dye from the Membrane Potential Assay Kit (Red™ Bulk format part R8123 for FLIPR, MDS Analytical Technologies™) is prepared by dissolving the contents of one vessel Membrane Potential Assay Kit Red Component A in 200 ml of extracellular buffer (ES buffer, 120 mM NaCl, 1 mM KCl, 10 mM HEPES, 2 mM CaCl2, 2 mM MgCl2, 10 mM glucose; pH 7.4). After removal of the nutrient medium, the cells are washed once with 200 μl of ES buffer, then loaded for 45 min at room temperature in 100 μl of dye solution in the dark.
Fluorescence measurements are carried out in a BMG Labtech FLUOstar™, BMG Labtech NOVOstar™ or BMG Labtech POLARstar™ instrument (525 nm excitation, 560 nm emission, Bottom Read mode). After incubation with the dye, 50 μl of the test substances in the desired concentrations, or 50 μl of ES buffer for control purposes, are applied to the wells of the assay plate and incubated for 30 min at room temperature while being shielded from light. The fluorescence intensity of the dye is then measured for 5 min and the fluorescence value F1 of each well is thus determined at a given, constant time. 15 μl of a KCl solution are then added to each well (final concentration of potassium ions 92 mM). The change in fluorescence intensity is subsequently monitored until all the relevant values have been obtained (mainly 5-30 min). At a given time post KCl application, a fluorescence value F2 is determined, in this case at the time of the fluorescence peak.
For calculation, the fluorescence intensity F2 is corrected for the fluorescence intensity F1, and the activity (ΔF/F) of the target compound on the potassium channel is determined as follows:
In order to determine whether a substance has agonistic activity,
[formula] can be related to
[formula] of control wells.
[formula] is determined by adding to the well only the buffer solution instead of the test substance, determining the value F1K of the fluorescence intensity, adding the potassium ions as described above, and measuring a value F2K of the fluorescence intensity. F2K and F1K are then calculated as follows: […]
A substance has an agonistic activity on the potassium channel if
[formula] is greater than
Independently of the comparison of
[formula] it is possible to conclude that a target compound has agonistic activity if
[formula] increases dose dependently.
Calculations of EC50 and IC50 values are carried out with the aid of ‘Prism v4.0’ software (GraphPad Software™).

CC(C)CCNC(=O)c1ccccc1SCCC(F)(F)c1ccc(F)cc1 [Example 1, 2-[[3,3-Difluoro-3-(4-fluorophenyl)-propyl]sulfanyl]-N-(3-methyl-butyl)-benzamide]
Emax: 203%
EC50: 156 nM

CC(C)(C)CCNC(=O)c1ccccc1SCCCc1ccc(F)cc1 [Example 2, N-(3,3-Dimethyl-butyl)-2-[3-(4-fluorophenyl)-propylsulfanyl]-benzamide]
Emax: 186%
EC50: 501 nM

CC(C)CCNC(=O)c1ncccc1SCCC(F)(F)c1ccc(F)cc1 [Example 3, 3-[[3,3-Difluoro-3-(4-fluorophenyl)-propyl]sulfanyl]-N-(3-methyl-butyl)-pyridine-2-carboxylic acid amide]
Emax: 118%
EC50: 1590 nM

CC(C)CCNC(=O)c1cnccc1SCCC(F)(F)c1ccc(F)cc1 [Example 5, 4-[[3,3-Difluoro-3-(4-fluorophenyl)-propyl]sulfanyl]-N-(3-methyl-butyl)-pyridine-3-carboxylic acid amide]
Emax: 228%
EC50: 849 nM

O=C(NCc1ccc(F)cc1)c1cnccc1SCCC(F)(F)c1ccc(F)cc1 [Example 6, 4-[[3,3-Difluoro-3-(4-fluorophenyl)-propyl]sulfanyl]-N-[(4-fluorophenyl)-methyl]-pyridine-3-carboxylic acid amide]
Emax: 121%
EC50: 563 nM

CC(C)CCNC(=O)c1ccncc1SCCC(F)(F)c1ccc(F)cc1 [Example 7, 3-[[3,3-Difluoro-3-(4-fluorophenyl)-propyl]sulfanyl]-N-(3-methyl-butyl)-pyridine-4-carboxylic acid amide]
Emax: 197%
EC50: 1400 nM

CC(C)CCNC(=O)c1nccnc1SCCC(F)(F)c1ccc(F)cc1 [Example 9, 3-[[3,3-Difluoro-3-(4-fluorophenyl)-propyl]sulfanyl]-N-(3-methyl-butyl)-pyrazine-2-carboxylic acid amide]
Emax: 199%
EC50: 521 nM

CC(C)CCNC(=O)c1cncnc1SCCC(F)(F)c1ccc(F)cc1 [Example 10, 4-[[3,3-Difluoro-3-(4-fluorophenyl)-propyl]sulfanyl]-N-(3-methyl-butyl)-pyrimidine-5-carboxylic acid amide]
Emax: 211%
EC50: 61 nM

O=C(NCc1ccc(F)cc1)c1cncnc1SCCC(F)(F)c1ccc(F)cc1 [Example 11, 4-[[3,3-Difluoro-3-(4-fluorophenyl)-propyl]sulfanyl]-N-[(4-fluorophenyl)-methyl]-pyrimidine-5-carboxylic acid amide]
Emax: 112%
EC50: 51 nM

CC(C)CCNC(=O)c1ccnnc1SCCC(F)(F)c1ccc(F)cc1 [Example 12, 3-[[3,3-Difluoro-3-(4-fluorophenyl)-propyl]sulfanyl]-N-(3-methyl-butyl)-pyridazine-4-carboxylic acid amide]
Emax: 203%
EC50: 427 nM

O=C(NCc1ccc(F)cc1)c1ccnnc1SCCC(F)(F)c1ccc(F)cc1 [Example 13, 3-[[3,3-Difluoro-3-(4-fluorophenyl)-propyl]sulfanyl]-N-[(4-fluorophenyl)-methyl]-pyridazine-4-carboxylic acid amide]
Emax: 100%
EC50: 264 nM

Cc1nc(SCCC(F)(F)c2ccc(F)cc2)c(C(=O)NCc2ccc(F)cc2)s1 [Example 15, 4-[[3,3-Difluoro-3-(4-fluorophenyl)-propyl]sulfanyl]-N-[(4-fluorophenyl)-methyl]-2-methyl-thiazole-5-carboxylic acid amide]
Emax: 83%
EC50: 231 nM
